In assay [1] the test system is mitochondrial complexes II, III and IV. As to conditions: 30 mg/kg/day oral gavage 45 days. The procedure:
1.5-month-old WT and hemizygous YAC128 mice (males and females in equal proportion) were divided into four groups. […] Mice were divided 4 animals per cage enriched in corn-husk nesting material and paper rolls, each cage representing one individual experiment, for a total of 9 animals per group. Pridopidine was dissolved in deionized sterile water. Animals were weighed every week and the volume of treatment adjusted accordingly. Mice were behaviorally tested in rotarod immediately before commencing treatment and on the day before finishing treatment. Tests were conducted blindly at a set time during the day. Mice were sacrificed 24 h after administration of the final pridopidine dose, and mitochondria isolated from the striatum.
The final homogenate was then centrifuged at 1,100×g for 2 min, at 4° C. […] The mitochondrial fraction was pelleted by centrifugation at 18,500×g for 10 min at 4° C. The pellet was then resuspended in 1 mL of mitochondria washing buffer (MWB: in mM, 250 sucrose, 5 HEPES-KOH, 0.1 EGTA, pH 7.2) and centrifuged at 10,000×g for 5 min at 4° C. Mitochondrial pellet was again resuspended in a small volume of ice-cold MWB, to create a concentrated mitochondria solution, and kept on ice for further analysis for a maximum of 2 hours. Protein content of isolated mitochondria was quantified by Bio-Rad assay (Bio-Rad, catalog no. 5000006).
After centrifugation, the volume was adjusted to 450 μL and the Seahorse plate was equilibrated in a humidified C02-free incubator at 37° C. for 10-12 min.

For assay [2], the system named is cortico-striatal co-cultures (YAC128). Particulars: Y128, 1 μM, n=4.
Procedure: For cortico-striatal co-cultures, brains were removed and transferred to Hibernate E medium (Thermo Fisher Sci., catalog no: A1247601) for up to 24 h. […] The cortex and striatum were micro-dissected in ice-cold Hank's balanced salt solution (HBSS; Gibco), then diced and pooled per genotype. […] The dissociated tissues were centrifuged at 145×g for 5 min and the pellet was then triturated with a pipette five to six times. […] The cells were fed with ⅓ volume fresh medium every fifth day.
The stained cells were washed twice with PBS and fixed with ice-cold methanol for 15 min at room temperature. Mitochondria were visualized using the SP5 confocal microscope (Leica). 8 random areas were sampled. Circularity was determined using ImageJ with an internal plugin.
Assay [3] has as its system WT and YAC128 striatal neurons. The procedure:
(§1) Briefly, plasmid was diluted in TE (in mM: 1 Tris-HCl pH 7.3, 1 mM EDTA), followed by the addition of CaCl2 (in mM: 2.5 CaCl2 in 10 HEPES, pH 7.2). The DNA solution was carefully added to 2×HEBS (in mM: 12 dextrose, 50 HEPES, 10 KCl, 280 NaCl and 1.5 Na2HPO4·2H2O, pH 7.2) while bubbling air through the solution. The mixture was then incubated for 25 min at room temperature. The precipitates were added dropwise to the coverslips in Neurobasal medium and incubated for 80 minutes at 37° C. The DNA-Ca^2+-phosphate precipitates were dissolved with freshly-made dissolution medium (Neurobasal medium with 20 mM HEPES, pH 6.8) and incubated for 7 min at room temperature. The transfected neurons were then washed with Neurobasal medium and transferred back to their original dishes containing conditioned culture medium until DIV12.
MitoDsRed-transfected striatal neurons were fixed with 4% paraformaldehyde (pre-warmed at 37° C.) for 20 minutes, permeabilized in 0.2% Triton X-100 in PBS for 2 minutes and blocked for 1 hour at room temperature in 3% (w/v) BSA in PBS. […] Confocal images were obtained as stacks, at 0.46 μm intervals along the z axis, using a Plan-Apochromat/1.4NA 63× lens on an Axio Observer.Z1 confocal microscope (Zeiss Microscopy, Germany) with Zeiss LSM 710 software. FIJI (ImageJ, National Institute of Health, USA) was used for image analysis. […] To optimally resolve individual mitochondria, a threshold was applied followed by the Analyze Particles function to trace mitochondrial outlines. For S1R and IP3R3 fluorescence, a threshold was set similarly to the one described above, and Integrated Density was obtained. S1R and IP3R3 Integrated Density was calculated inside of mitochondrial ROIs selection to obtain ER co-localization with mitochondria.

Assay [4] has as its system HD human lymphoblasts. As to conditions: 24 h pre-treatment. As to the method: The lymphoblasts were passaged 1:3 every five to six days. For conducting experiments, the lymphoblasts were collected and centrifuged at 145×g for 5 min. The cell pellet was resuspended in fresh growth medium. Lymphoblasts between passage number 5 and 20 were used in each experiment.
Mitochondrial membrane potential (Δψm) was assessed in cortical and striatal neurons using the positively changed fluorescent probe TMRM (tetramethylrhodamine methyl ester) (Thermo Fisher Sci., catalog no: T668) and in cortical/striatal co-cultures and lymphoblasts using an equivalent probe, TMRE (tetramethylrhodamine ethyl ester) (Abcam, catalog no. ab113852).
TMRE assay: Primary neurons and lymphoblasts in suspension were cultured in 6-well plates.

In assay [5] the test system is YAC128 cortical and striatal neurons. As to conditions: 24 h. As to the method:
After basal reading for 10 minutes, neurons were stimulated with antimycin A (2 μM).

The subject of assay [6] is HD lymphoblasts. As to conditions: 5 μM, H2O2-challenged conditions, p=0.0001.
Procedure: H2O2 (9.8 M stock) was dissolved in cell culture medium prior to experimentation. Primary neurons and lymphoblasts cultured on PDL-coated plates were treated with H2O2 (0-1 mM) for up to 6 hours. Oxidative stress was measured using the CellROX red reagent (Life Technologies, catalog no. C10422). Cells were treated with 5 μM CellRox red in complete medium, then incubated for 30 minutes. The cells were then washed with PBS and imaged on a Zeiss Axiovert inverted microscope (Zeiss, Jena, Germany) using a 10× objective. Exposure settings were maintained for all samples. Eight random fields were sampled, and the fluorescence intensity was measured using ImageJ software and normalized to the DAPI signal.
Assay [7] concerns YAC128 striatal neurons. Particulars: 1 μM. As to the method: as §1
[8] abbreviates: YAC128 striatal neurons, 1 μM, 24 h.

This is an account of results in US12685725B2, “Pridopidine for the treatment of mitochondrial-associated diseases and disorders and endoplasmic reticulum (ER) stress” (PRILENIA NEUROTHERAPEUTICS LTD., priority 2019, dated 2026).

Each structure is given as a SMILES string. Where two headings read alike, the source gives them in different places.

Turning to `CCCN1CCC(c2cccc(S(C)(=O)=O)c2)CC1` [Pridopidine, 4-[3-(methylsulfonyl)phenyl]-1-propyl-piperidine], in assay [1] (YAC128 mice), the “activity of mitochondrial complex IV (OCR)” value is given as “shows a similar decreasing trend”. Besides, in assay [1] (YAC128 mice, p=0.0084), the “activity of mitochondrial complex III” value was “normalizes the activity of mitochondrial complexes H and III”. Also, in assay [1] (YAC128 mice, p=0.0306), the “activity of mitochondrial complex II” value is “normalizes the activity of mitochondrial complexes H and III”. Further, the mitochondrial complex activities result in assay [1] (wild-type mice) is on record as “does not affect mitochondrial complex activities”. In assay [2], the “mitochondrial morphology (percentage of circular and elongated mitochondria)” value was “corrects Y128 morphology to WT levels”. Further, the “S1R co-localization with mitochondria” value in assay [3] (Y128 neurons, 1 μM, 24 h, p<0.0001) is “increase in IP3R and S1R co-localization with mitochondria”. The “IP3R co-localization with mitochondria” value in assay [3] (Y128 neurons, 1 μM, 24 h, p=0.0001) was “increase in IP3R and S1R co-localization with mitochondria”. In assay [3] (Y128 striatal neurons), the “total S1R protein levels” value is on record as “restores S1R levels to WT levels”. The “S1R total levels in neurites” value in assay [3] (setting [8]) is “significantly increases S1R levels”. The “S1R total levels in soma” value in assay [3] (setting [8]) is recorded as “significantly increases S1R levels”. In addition, the “MMP (TMRE signal) after H2O2” value in assay [4] (HD human lymphoblasts, 5 μM, then H2O2 6 h) is “significant rescue effect”. The “restoration of membrane potential” value in assay [4] (human lymphoblasts, 10 μM, then 0.1 mM H2O2 6 h, p=0.1389) is “less efficacious and shows less restoration of membrane potential”. Also, the “concentration of maximal effect on MMP (bell-shaped dose-response)” value in assay [4] (human lymphoblasts, then 0.1 mM H2O2 6 h) is 5 µM. Further, the “mito-H2O2 levels prompted by Ant A” value in assay [5] (YAC128 cortical neurons, 1 μM, p<0.0001) is “reverts the increased levels of mito-H2O2 prompted by Ant A”; in assay [5] (YAC128 striatal neurons, 0.1 μM, p=0.0005), “reverts the increased levels of mito-H2O2 prompted by Ant A”; in assay [5] (YAC128 striatal neurons, 1 μM, p<0.0001) it was “reverts the increased levels of mito-H2O2 prompted by Ant A”. Further, the “decrease of ROS levels (CellRox)” value in assay [6] is given as 57%. For the same compound, in assay [7] (YAC128 neurons, p<0.05), the “velocity of motile mitochondria” value is “This decrease was ameliorated”. Further, the “proportion of motile mitochondria” value in assay [7] (YAC128 striatal neurons, p=0.0286) is “significantly increases the proportion of motile mitochondria”.
